Assays:
eIF4A2:poly r(AG)8 RNA = biological target: T1, eIF4A2:poly r(AG)8 RNA (Homo sapiens, UniProt Q14240); test: fluorescence polarization (FP) assay, eIF4A2 binding to FAM-labelled RNA; details: 10 μM CR-1-31-B
T1 construct: His6 (N); made in house; host or cells: E. coli BL21 (DE3)
Excerpt: Rocaglates similarly enhance RNA binding of eIF4A1 and eIF4A2. In order to rapidly evaluate the ability of rocaglates to stimulate binding of eIF4A to RNA, a fluorescence polarization (FP) assay using a FAM (fluorescein amidite)-labelled RNA probe (FIG. 18A) was used. […] Due to the high degree of shared amino acid identity between the two paralogs, their apparent similarity with respect to RNA binding activity and response to CR-1-31-B (23), and the fact that eIF4A1 is essential but eIF4A2 is not, eIF4A1 was used in the majority of our subsequent experiments.
Fluorescence Polarization (FP) Assays. Unless otherwise specified, eIF4A (500 nM) was incubated with 10 nM FAM-labelled RNA for 30 min in FP buffer (14.4 mM HEPES-NaOH (pH 8), 108 mM NaCl, 1 mM MgCl2, 14.4% glycerol, 0.1% DMSO, 2 mM DTT, 1 mM AMPPNP) at room temperature in black low volume 384 well plates (Corning 3820). FP readings were performed on a Pherastar FS microplate reader (BMG Labtech).
FIGS. 17A-17F. Assessment of eIF4A1 and eIF4A2 RNA binding specificity. 17A. Chemical structure of the most commonly used rocaglates in biological studies 17B. Coomassie blue staining of SDS-PAGE showing eIF4A1 and eIF4A2 preparations used herein. […]

eIF4A1:poly r(AG)10 = biological target: T2, eIF4A1:poly r(AG)10 (Homo sapiens, UniProt P60842); test: FP competition assay, dissociation of eIF4A from (AG)10 RNA; type: binding; details: in the presence of compound
T2 construct: His6 (N); made in house; host or cells: E. coli BL21 (DE3)
T2 sequence (P60842 whole entry, species assumed): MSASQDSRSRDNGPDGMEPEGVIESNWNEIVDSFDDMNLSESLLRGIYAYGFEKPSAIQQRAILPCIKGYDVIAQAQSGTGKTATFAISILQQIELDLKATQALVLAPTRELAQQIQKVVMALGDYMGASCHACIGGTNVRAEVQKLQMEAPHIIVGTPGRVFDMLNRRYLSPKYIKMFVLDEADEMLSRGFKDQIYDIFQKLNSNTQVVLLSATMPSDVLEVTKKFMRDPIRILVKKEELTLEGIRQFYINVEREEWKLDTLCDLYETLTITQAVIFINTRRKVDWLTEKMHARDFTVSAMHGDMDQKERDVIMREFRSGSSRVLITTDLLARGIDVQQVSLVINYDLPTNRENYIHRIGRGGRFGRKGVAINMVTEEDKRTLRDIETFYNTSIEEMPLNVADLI
Method: All of these identified compounds retained similar RNA sequence binding preference for eIF4A1 with a bias for polypurine-containing substrates over polypyrimidines (FIG. 17). […] Even in the presence of ATP, which stimulates release of eIF4A from RNA, the half-life of the complexes were much longer than the rates of translation initiation (median <1 min)
Rocaglates sequester eIF4F onto RNA. RocA (2) induced clamping of eIF4A to 5′ leader regions have been proposed to inhibit translation by blocking scanning of 43S PICs. We therefore sought to test if this mechanism was sufficient to account for the translation inhibition observed with RocA, CR-1-31-B (23), and the newly identified ADRs. We supplemented translation extracts programmed with m^7G-(AG)10-FF/HCV/Ren mRNA with wild-type (wt) or rocaglate-resistant eIF4A1(F163L) recombinant protein. […] Thus, if stabilization of endogenous eIF4A in translation extracts onto mRNA is sufficient to mediate translation inhibition, then the addition of recombinant eIF4A1^F163L should not be able to rescue this inhibition. […]
FIG. 21. […] FP results of competition assays in which preformed eIF4A1:rocaglate:FAM-poly r(AG)10 complexes were incubated in the presence of poly r(AG)10 (SEQ ID NO: 39) and dissociation measured as a function of time. n=3±SD.

T1 sequence (Q14240 whole entry, species assumed): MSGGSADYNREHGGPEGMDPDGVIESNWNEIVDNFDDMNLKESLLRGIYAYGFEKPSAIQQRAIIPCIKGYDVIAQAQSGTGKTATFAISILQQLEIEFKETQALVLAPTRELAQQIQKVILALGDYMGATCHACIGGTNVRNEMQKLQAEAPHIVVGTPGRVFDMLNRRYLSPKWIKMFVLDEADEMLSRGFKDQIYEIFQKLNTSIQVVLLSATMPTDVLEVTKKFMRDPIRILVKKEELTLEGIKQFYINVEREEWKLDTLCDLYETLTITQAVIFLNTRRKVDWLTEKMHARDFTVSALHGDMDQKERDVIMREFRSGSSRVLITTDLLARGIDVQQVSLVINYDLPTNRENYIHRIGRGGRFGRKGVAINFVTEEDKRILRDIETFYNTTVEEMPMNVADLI

CONC(=O)[C@H]1[C@@H](O)[C@@]2(O)c3c(OC)cc(OC)cc3O[C@@]2(c2ccc(OC)cc2)[C@@H]1c1ccccc1 [CR-1-31-B]
stimulation of eIF4A2:RNA binding (in words) (eIF4A2:poly r(AG)8 RNA): equally stimulates binding of both eIF4A1 and eIF4A2

COc1ccc([C@@]23Oc4cc(OC)cc(OC)c4[C@]2(O)[C@H](O)[C@H](C(=O)N(C)C)[C@H]3c2ccccc2)cc1 [RocA, rocaglamide A]
dissociation of eIF4A from (AG)10, t1/2 (eIF4A1:poly r(AG)10): 27 min
